test system: SW620 cells (KRAS-G12V); assay: Cell proliferation / cytotoxicity assay (CellTiter-Glo 2.0); type: cell-based; conditions: Homo sapiens, SW-620, 72 h, SW620 cell line (KRAS-G12V), 72 hours incubation, luminescence (CellTiter-Glo 2.0); read-out: 5W620 IC50
Protocol: Compounds are assayed for inhibition of cell proliferation and killing cancer cells. Cytotoxicity assays are conducted according to the following general procedure. SW620 cells (ATCC CCL-227) are maintained in DMEM Low Glucose (Corning 10-014-CV) media supplemented with 10% fetal bovine serum and 1% PenStrep and grown at 37° C. in 5% CO2. Cells are plated into 96 well flat bottom plates (2 million/plate, ˜20,000/well, 200 μL media/well). The cells are allowed to settle and adhere to the plate bottom overnight. Compounds are diluted in media from a 10 mM stock solution starting at 50 μM, using 2-fold dilutions, in a column in a 96-well plate. Media is removed from the plate containing cells and replaced with media containing diluted compounds. Plates are incubated 72 hours at 37° C. in 5% CO2. Plates were allowed to come to room temperature and 100 μL CellTiter-Glo 2.0 reagent (Promega, G924C) is added at room temperature. Plates are shaken for 2 minutes, then allowed to stand for 15 minutes. Luminescence is read with FLx800 (BioTek Instruments). Data is plotted with GraphPad Prizm 8.0.
Dose response curves for the cytotoxicity of exemplary compounds against SW620 (KRAS-G12V) and MIA PaCa-2 (KRAS-G12C) cell lines are shown in FIG. 1A-1J.

First: Cc1nc(N[C@H]2CC[C@@H](NC3Cc4cccc(Cl)c4C3)CC2)nc2ccc(-c3cccc4c3OCCO4)cc12 (stereo partly shown) [Compound 68]
Second: Cc1ncccc1-c1ccc2nc(N[C@H]3CC[C@@H](NC4Cc5cccc(Cl)c5C4)CC3)nc(C)c2c1 (stereo partly shown) [Compound 69]
The IC50 of the first is lower: < 5 µM for the first, 5 to 10 µM for the second.

`Cc1nc(NC2CCN(Cc3ccc(Cl)cc3)CC2)nc2ccc(-c3cccc4c3OCC(=O)N4)cc12` [Compound 70] and `Cc1nc(N[C@H]2CC[C@@H](N)CC2)nc2ccc(-c3cccc4c3OCC(=O)N4)cc12` [Compound 71] fall in the same range of IC50: 5 to 10 µM for the first, 5 to 10 µM for the second.

`Cc1nc(N[C@@H]2CC[C@H]3CC[C@@H](C2)N3C(=O)c2ccccc2Cl)nc2ccc(-c3cccc4c3CCCC4)cc12` [Compound 72] and `Cc1nc(N[C@@H]2CC[C@H]3CC[C@@H](C2)N3C(=O)c2ccc(Cl)cc2Cl)nc2ccc(-c3cccc4c3CCCC4)cc12` [Compound 73] fall in the same range of IC50: 5 to 10 µM for the first, 5 to 10 µM for the second.

For `Cc1nccc(-c2ccc3nc(N[C@@H]4CC[C@H]5CC[C@@H](C4)N5Cc4ccc(Cl)cc4)nc(C)c3c2)c1Cl` [Compound 74], the IC50 was < 5 µM.

— US12528796B2, “Modulators of RAS GTPase” (Tosk, Inc., priority 2019, dated 2026)
